Laboratory results from patent publication US20260132123A1, “ABAD INHIBITOR COMPOUNDS” (UNIVERSITY COURT OF THE UNIVERSITY OF ST ANDREWS, priority 2021, published 2026).

Experiments:
[1] = system: SH-SY5Y (neuroblastoma cells); conditions: cited from earlier work
[2] = Mouse hepatocyte stability; type: in vitro ADME; parameters: k: unit not given here
Excerpt: Table 5: Initial mouse hepatocyte stability and plasma protein binding experiments were undertaken on some of the best exemplars from the representative series with AG18051 a previously published 17β-HSD10 inhibitor (C. R. Kissinger et al., J. Mol. Biol., 342 (2004), p. 943; Lim, Y.-A., Grimm, A., Giese, M. PLoS ONE (2011), 6, e28887.) Ref: shown for comparison. Where k=absorption rate constant Cl=clearance, T1/2=half-life, Heps=hepatocyte metabolism, PPB=plasma protein binding.

O=C(C(c1ccccc1)n1cnc2[nH]ncc2c1=S)N1CCCCCC1 (centres unmarked) [AG18051, reference compound]
protection from Aβ mediated cytotoxicity [1]: protect cultured SH-SY5Y cells from Aβ mediated cytotoxicity
Heps Category ([2]; hepatocyte metabolism category, mouse): High
Cl ([2]; mouse hepatocytes, clearance): 50.5 ml/minute/g liver
T1/2 ([2]; mouse hepatocytes, half-life): 6.58 min
k ([2]; mouse hepatocytes, k=absorption rate constant (so in the source)): 0.11
